# Laboratory results published in ChEMBL document CHEMBL5360556, “An overview of compound properties, multiparameter optimization, and computational drug design methods for PARP-1 inhibitor drugs” (Eur J Med Chem, 2023).
# Legend:
# [1] = target: T1, Poly [ADP-ribose] polymerase 1 (Homo sapiens, UniProt P09874); test: Inhibition of PARP1 (unknown origin) incubated for 60 mins by absorbance based analysis
# [2] = Lipophilicity, logD of compound at pH 7.4; assay type: physicochemical; settings: buffer
# [3] = Lipophilicity, logP of compound; assay type: physicochemical; settings: octanol/water
# [4] = Dissociation constant, pKa of the compound under acidic condition; assay type: physicochemical
# [5] = Dissociation constant, pKa of the compound under basic condition; assay type: physicochemical
# [6] = target: T1, Poly [ADP-ribose] polymerase 1; test: Inhibition of PARP1 (unknown origin) incubated for 60 mins by ELISA assay
# [7] = Solubility of the compound; assay type: physicochemical
# [8] = target: T1, Poly [ADP-ribose] polymerase 1; test: Inhibition of PARP1 CD (unknown origin) by colorimetric assay
# [9] = target: T1, Poly [ADP-ribose] polymerase 1; test: Inhibition of PARP1 (unknown origin) using Streptavidin-HRP as substrate incubated for 1 hr by absorbance based analysis
# [10] = target: T1, Poly [ADP-ribose] polymerase 1; test: Inhibition of PARP1 (unknown origin)
# [11] = target: Voltage-gated inwardly rectifying potassium channel KCNH2 (Homo sapiens, UniProt Q12809); test: Inhibition of hERG; assay type: toxicity
# Voltage-gated inwardly rectifying potassium channel KCNH2, sequence (Q12809 whole entry): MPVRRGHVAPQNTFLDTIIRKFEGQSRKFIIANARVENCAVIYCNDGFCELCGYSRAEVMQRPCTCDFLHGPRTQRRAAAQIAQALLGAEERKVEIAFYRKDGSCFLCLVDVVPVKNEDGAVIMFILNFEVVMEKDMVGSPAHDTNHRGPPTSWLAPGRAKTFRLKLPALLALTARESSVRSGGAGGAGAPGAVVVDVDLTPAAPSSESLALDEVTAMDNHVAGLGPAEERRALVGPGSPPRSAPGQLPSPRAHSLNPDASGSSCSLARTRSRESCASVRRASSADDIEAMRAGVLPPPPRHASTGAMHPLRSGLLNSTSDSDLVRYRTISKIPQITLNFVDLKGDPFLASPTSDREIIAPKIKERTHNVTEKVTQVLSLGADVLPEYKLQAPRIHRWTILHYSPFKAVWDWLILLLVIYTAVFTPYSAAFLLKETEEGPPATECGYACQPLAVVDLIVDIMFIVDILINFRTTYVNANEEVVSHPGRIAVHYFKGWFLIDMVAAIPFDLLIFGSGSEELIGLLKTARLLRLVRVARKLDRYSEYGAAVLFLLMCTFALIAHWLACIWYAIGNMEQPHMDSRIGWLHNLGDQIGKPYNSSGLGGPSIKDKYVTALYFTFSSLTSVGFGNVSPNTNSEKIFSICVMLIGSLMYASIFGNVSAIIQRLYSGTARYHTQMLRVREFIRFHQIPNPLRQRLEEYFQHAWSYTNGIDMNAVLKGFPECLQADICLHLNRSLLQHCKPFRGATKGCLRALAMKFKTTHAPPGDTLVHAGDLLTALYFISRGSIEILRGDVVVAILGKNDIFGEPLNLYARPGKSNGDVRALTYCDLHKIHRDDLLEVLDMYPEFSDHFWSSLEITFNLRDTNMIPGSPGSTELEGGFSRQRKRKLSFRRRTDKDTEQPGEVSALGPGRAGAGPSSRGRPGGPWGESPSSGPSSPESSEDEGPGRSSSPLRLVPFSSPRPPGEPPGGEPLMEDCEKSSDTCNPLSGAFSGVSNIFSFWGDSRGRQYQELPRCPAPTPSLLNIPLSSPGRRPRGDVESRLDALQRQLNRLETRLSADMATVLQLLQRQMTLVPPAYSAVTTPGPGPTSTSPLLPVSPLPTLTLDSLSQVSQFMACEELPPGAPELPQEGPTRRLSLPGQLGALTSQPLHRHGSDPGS
# T1 sequence (P09874 whole entry): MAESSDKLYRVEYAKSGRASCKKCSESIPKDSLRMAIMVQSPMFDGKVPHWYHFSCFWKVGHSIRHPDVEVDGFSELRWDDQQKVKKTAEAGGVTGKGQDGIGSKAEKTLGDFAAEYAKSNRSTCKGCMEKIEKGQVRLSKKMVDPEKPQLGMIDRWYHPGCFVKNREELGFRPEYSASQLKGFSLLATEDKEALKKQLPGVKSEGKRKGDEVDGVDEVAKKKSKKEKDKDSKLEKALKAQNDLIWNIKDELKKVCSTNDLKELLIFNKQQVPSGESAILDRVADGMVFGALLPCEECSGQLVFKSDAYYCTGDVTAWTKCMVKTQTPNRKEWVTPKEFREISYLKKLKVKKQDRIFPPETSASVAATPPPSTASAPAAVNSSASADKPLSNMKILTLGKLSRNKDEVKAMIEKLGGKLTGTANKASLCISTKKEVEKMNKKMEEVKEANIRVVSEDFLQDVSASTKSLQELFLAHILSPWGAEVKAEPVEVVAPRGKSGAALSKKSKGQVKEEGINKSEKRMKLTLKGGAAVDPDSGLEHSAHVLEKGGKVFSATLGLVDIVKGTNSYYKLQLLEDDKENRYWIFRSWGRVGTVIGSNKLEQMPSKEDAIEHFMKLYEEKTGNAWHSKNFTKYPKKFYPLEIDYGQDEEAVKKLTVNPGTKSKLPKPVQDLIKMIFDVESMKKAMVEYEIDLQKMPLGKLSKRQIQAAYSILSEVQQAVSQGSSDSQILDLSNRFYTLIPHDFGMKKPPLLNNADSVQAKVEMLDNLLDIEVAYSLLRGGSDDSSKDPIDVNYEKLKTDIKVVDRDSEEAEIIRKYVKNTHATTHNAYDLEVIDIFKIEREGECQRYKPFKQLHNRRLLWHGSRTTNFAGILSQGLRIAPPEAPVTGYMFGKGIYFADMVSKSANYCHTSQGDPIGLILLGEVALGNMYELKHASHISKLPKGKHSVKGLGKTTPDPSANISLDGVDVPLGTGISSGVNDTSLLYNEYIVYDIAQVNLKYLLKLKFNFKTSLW
structure (smiles),measurement,setting,value
C[N+]12CCc3cc(O)c(O)cc3C1Cc1cc3c(cc12)OCO3 (configuration not stated),IC50,[1],0.96 µM
O=C(c1cc(Cc2n[nH]c(=O)c3ccccc23)ccc1F)N1CCN(C(=O)C2CC2)CC1 [OLAPARIB],logD,[2],1.96
same,logP,[3],1.96
same,pKa,[4],9.96
same,pKa,[5],0.9
CCN(c1ccccc1)S(=O)(=O)c1ccc(NC(=O)C2CC(=O)c3cc(C)c(C)cc3O2)cc1 (configuration not stated),IC50,[6],63 µM
C[N+]1(C)CCc2cc(O)c(O)cc2[C@H]1Cc1ccc(O)c(O)c1,IC50,[1],1.6 µM
Cn1ncnc1[C@H]1c2n[nH]c(=O)c3cc(F)cc(c23)N[C@@H]1c1ccc(F)cc1 [TALAZOPARIB],logD,[2],2.11
same,logP,[3],2.11
same,pKa,[4],9.48
same,pKa,[5],1.66
same,solubility,[7],17 µg/mL
Cc1cc(O)nn1S(=O)(=O)c1ccc2[nH]c(=O)c(=O)[nH]c2c1,IC50,[8],0.00873 µM
O=C(CSc1nc2sc3c(c2c(=O)[nH]1)CCC3)N(CCO)CCO,IC50,[6],0.56 µM
O=C(NN1CCCC1)c1cc(Cc2n[nH]c(=O)c3cccnc23)ccc1F,IC50,[9],0.0367 µM
Oc1ccc(C2CNCc3c(O)cccc32)cc1O (racemic),IC50,[1],0.24 µM
O=C1CCc2cc(-c3ccccc3F)ccc2C2(CCCCC2)N1,IC50,[10],0.019 µM
NC(=O)c1cccc2cn(-c3ccc([C@@H]4CCCNC4)cc3)nc12 [NIRAPARIB],logD,[2],-0.11
same,logP,[3],2.47
same,pKa,[4],14
same,pKa,[5],10.1
same,solubility,[7],700 µg/mL
same,IC50,[11],10 µM
CC1=C(NN)SC(NNS(=O)(=O)c2ccc3[nH]c(=O)c(=O)[nH]c3c2)N1C(=O)c1ccccc1 (configuration not stated),IC50,[8],0.00231 µM
CNCc1ccc(-c2[nH]c3cc(F)cc4c3c2CCNC4=O)cc1 [RUCAPARIB],logD,[2],0.55
same,logP,[3],2.45
same,pKa,[4],13.2
same,pKa,[5],9.32
same,solubility,[7],1000 µg/mL
same,IC50,[11],23 µM
CC1=CSC(NNS(=O)(=O)c2ccc3[nH]c(=O)c(=O)[nH]c3c2)N1C(=O)c1ccccc1 (configuration not stated),IC50,[8],0.00635 µM
CC(=O)C1=C(C)N(C(=O)c2ccccc2)C(NNS(=O)(=O)c2ccc3[nH]c(=O)c(=O)[nH]c3c2)S1 (configuration not stated),IC50,[8],0.00825 µM
